The record followed here is patent US20240287048A1, “SUBSTITUTED ACYL SULFONAMIDES FOR TREATING CANCER” (The Broad Institute, Inc., priority 2020, published 2024).

Some results are limits rather than exact numbers.

For assay [1], the target named is T1, KAT6A (Homo sapiens, UniProt Q92794).
T1 construct: Recombinant human His-tagged Kat6a protein (amino acids 194-810); His; made in house; host or cells: Baculovirus-infected Sf9 insect cells
As to the kind of experiment: Kat6a activity assay (TR-FRET, acetylation of biotinylated histone H4 peptide). It counts as biochemical. To be noted: recombinant human His-tagged Kat6a (amino acids 194-810), 60 mins at 22° C., read-out: KAT6A-DPF/HAT domain IC50 [mol/l] (arithmetic mean). The text has this:
Kat6a inhibitory activities of the compounds described in the present invention were quantified using a Fluorescence Resonance Energy Transfer (TR-FRET) assay which measures acetylation of a synthetic, biotinylated Histone-H4-derived peptide by the enzyme.
Recombinant human His-tagged Kat6a protein (amino acids 194-810), was purified in-house from Baculovirus-infected insect cells (Sf9). Histone H4 peptide (amino acids 1-24, […]-VLRD-K(Btn)-amide), which was used as substrate, was synthesized by Biosyntan GmbH, Berlin, Germany. Acetyl Coenzyme A was purchased from Sigma-Aldrich (#A-2056).
Kat6a was incubated for 60 mins at 22° C. in the presence of different concentrations of test substances (0 μM, and within the range 0.01-20 μM) in assay buffer [25 mM Tris/HCl pH 8, 1 mM EGTA, 2.5 mM Glutathion, 0.02% Chicken Albumin, 0.05% Pluronic F127, 25 mM NaCl, 220 nM H4 peptide and 600 nM Acetyl Coenzyme A].
The reaction was stopped by addition of Detection Solution (25 mM HEPES pH 7.5, 0.1% BSA, 22 nM SAXL665 (Cisbio #610SAXLE), 100 μM Anacardic Acid (Enzo #ALX-270-381), 1 nM Anti-Histone H4 (ACETYL K8) Antibody (ABCAM #AB15823) and 0.5 nM Anti-Rabbit IgG Eu (Perkin Elmer #AD0083).
(§1) The fluorescence emission at 620 nm and 665 nm after excitation at 330-350 nm was measured in a TR-FRET measuring instrument, for instance a Rubystar or a Pherastar (both from BMG Lab Technologies, Offenburg, Germany) or a Viewlux (Perkin-Elmer). The ratio of the emission at 665 nm and at […] was used as indicator of the amount of acetylated peptide.
(§2) The resulting data (ratio) were normalized, taking 0% inhibition as the mean value of control measurements where all reagents were included. In this case 50 nl DMSO were used instead of compounds. […] IC50 values were determined by regression analysis based on a 4 parameter equation (minimum, maximum, ICM, Hill; Y=Max+(Min−Max)/(1+(X/ICso) Hill) using the Screener Software (Genedata).
In general terms: Time-resolved FRET reads energy transfer from a long-lived donor to a nearby acceptor.

Assay [2] deals with T2, KAT6B (Homo sapiens, UniProt Q8WYB5).
T2 construct: fused on or other part: N-terminal GST tag
As to the kind of experiment: Kat6b activity assay (TR-FRET, acetylation of biotinylated histone H4 peptide). The note with it: recombinant human GST-tagged Kat6b (431-end), 30 mins at 22° C., read-out: KAT6B activity assay IC50 [mol/l] (arithmetic mean). It counts as biochemical.
Description: Kat6b inhibitory activities of the compounds described in the present invention were quantified using a Fluorescence Resonance Energy Transfer (TR-FRET) assay which measures acetylation of a synthetic, biotinylated Histone-H4-derived peptide by the enzyme.
Recombinant human GST-tagged Kat6b protein (431-end, N-terminal GST-tag), purified from Baculovirus-infected insect cells (Sf9), was purchased from SignalChem (#K315-381BG). Histone H4 peptide (amino acids 1-24, […]-VLRD-K(Btn)-amide), which was used as substrate, was synthesized by Biosyntan GmbH, Berlin, Germany. Acetyl Coenzyme A was purchased from Sigma-Aldrich (#A-2056).
Kat6b was incubated for 30 mins at 22° C. in the presence of different concentrations of test substances (0 μM, and within the range 0.01-20 μM) in assay buffer [25 mM Tris/HCl pH 8, 1 mM EGTA, 2.5 mM Glutathion, 0.02% Chicken Albumin, 0.05% Pluronic F127, 25 mM NaCl, 500 nM H4 peptide and 600 nM Acetyl Coenzyme A].
The reaction was stopped by addition of Detection Solution (25 mM HEPES pH 7.5, 0.1% BSA, 22 nM SAXL665 (Cisbio #610SAXLE), 100 μM Anacardic Acid (Enzo #ALX-270-381), 1 nM Anti-Histone H4 (ACETYL K8) Antibody (ABCAM #AB15823), 0.5 nM Anti-Rabbit IgG Eu (Perkin Elmer #AD0083).
as §1, §2

Assay [3] relates to ESR1 transcription in MVLN cells. The experiment in a line: Repression of ESR1 transcription, MVLN luciferase reporter assay. The note with it: Homo sapiens, luciferase signal after 24 h, read-out: MVLN reporter assay, IC50[M] (arithmetic mean). In kind it is cell-based. An excerpt: KAT6A controls transcription of the ESR1 gene in breast cancer cells. Compound treatment that interferes with this mechanism was quantified using MVLN cells. These cells constitutively express the ER and are stably transfected with the luciferase (LUC) reporter gene and the corresponding hormone responsive element derived from the 5′-flanking region of the Xenopus Vitellogenin A2 gene (Pons et al., 1990, Demirpense et al., 1993, Joyeux et al., 1993). The repressive effect on ERα transcription activity of a test chemical is directly related to the luciferase measured in the lysate of treated MVLN cells.
Each sample was prepared as duplicate and rim wells were excluded. For luciferase signal determination 100 μl of a 1:1 mixture of Steadylite plus (Perkin Elmer; 6016759) and assay medium was added after 24 h for 15 minutes and measured in Victor X3 (Perkin Elmer). To exclude any effects caused by cell loss during the treatment, cell density was determined using Alamar Blue (Invitrogen; DAL1100). Prior to the luciferase measurement 10 μl Alamar Blue were added to each well and the plates were incubated for 2 h in the incubator. Then fluorescence was measured with Victor X3 (Perkin Elmer) at 530 nm/590 nm.
Background: Reporter assays use an easily measured gene product as a stand-in for the process of interest.

The test system of assay [4] is ZR-75-1 cells. The experiment in a line: Proliferation assay in ZR-75-1 cells. It counts as cell-based. The note with it: Homo sapiens, 144 h, Alamar Blue, read-out: ZR75-1 proliferation assay, EC50[M] (arithmetic mean). An excerpt: (§3) For compound characterization cell survival assays were routinely run in two cell lines. ZR-75-1 is a breast carcinoma cell line containing a focal KAT6A amplification and high KAT6A protein expression. Proliferation of this cell line is inhibited upon treatment with KAT6A inhibitors. As a negative control cell line MDA-MB-436 were used. These cells carry a […] deletion of the KAT6A gene, have a low KAT6A protein expression and are not growth inhibited upon treatment with KAT6A inhibitors.
(§4) For measurements cell lines were plated at the below indicated concentration per […] in 96-well plates in a humidified incubator at 37° C. and 5% CO2.
(§5) ZR-75-1 (ATCC, CRL-1500; breast carcinoma); 3000 cells per well; culture medium: RPMI 1640 (Biochrom #FG 1215) medium containing 2.5% FBS (Biochrom #S0615). LCLC-97TM1 (DSMZ, ACC 388; large cell lung carcinoma); 6000 cells per well; culture medium: RPMI 1640 (Biochrom #FG 1215) medium containing 2.5% FBS (Biochrom #S0615). MDA-MB-436 (CLS, 300278; breast adenocarcinoma); 3000 cells per well; culture medium: DMEM/Ham's F12 (Biochrom #FG 4815) medium containing 2.5% FBS (Biochrom #S0615).
(§6) Each sample was prepared as triplicate and rim wells were excluded. Plates were incubated at 37° C. and 5% CO2 for 144 h. Cell viability was measured by adding 10 μL of Alamar Blue Reagent (Invitrogen #DAL 1100) and plates were incubated for 2 h at 37° C. and 5% CO2. Fluorescence was measured at 590 nm wavelength with a Tecan Spark or Victor X3 MTP-Reader (PerkinElmer).

In assay [5] the test system is LCLC-97TM1 cells. The experiment in a line: Proliferation assay in LCLC-97TM1 cells. It counts as cell-based. The note with it: Homo sapiens, 144 h, Alamar Blue, read-out: LCLC97TM1 proliferation assay, EC50[M] (arithmetic mean). Here is the method: as §4, §5, §6
On the technique in general: The colour change of resazurin is a common sign of viable cells or microbes.

Assay [6] relates to MDA-MB-436 cells. The experiment in a line: Proliferation assay in MDA-MB-436 cells (negative control cell line). In kind it is cell-based. To be noted: Homo sapiens, 144 h, Alamar Blue, read-out: MDA-MB-436 proliferation assay, EC50[M] (arithmetic mean).
Description: as §3, §4, §5, §6

T2 sequence (Q8WYB5 723-2073 limits assumed): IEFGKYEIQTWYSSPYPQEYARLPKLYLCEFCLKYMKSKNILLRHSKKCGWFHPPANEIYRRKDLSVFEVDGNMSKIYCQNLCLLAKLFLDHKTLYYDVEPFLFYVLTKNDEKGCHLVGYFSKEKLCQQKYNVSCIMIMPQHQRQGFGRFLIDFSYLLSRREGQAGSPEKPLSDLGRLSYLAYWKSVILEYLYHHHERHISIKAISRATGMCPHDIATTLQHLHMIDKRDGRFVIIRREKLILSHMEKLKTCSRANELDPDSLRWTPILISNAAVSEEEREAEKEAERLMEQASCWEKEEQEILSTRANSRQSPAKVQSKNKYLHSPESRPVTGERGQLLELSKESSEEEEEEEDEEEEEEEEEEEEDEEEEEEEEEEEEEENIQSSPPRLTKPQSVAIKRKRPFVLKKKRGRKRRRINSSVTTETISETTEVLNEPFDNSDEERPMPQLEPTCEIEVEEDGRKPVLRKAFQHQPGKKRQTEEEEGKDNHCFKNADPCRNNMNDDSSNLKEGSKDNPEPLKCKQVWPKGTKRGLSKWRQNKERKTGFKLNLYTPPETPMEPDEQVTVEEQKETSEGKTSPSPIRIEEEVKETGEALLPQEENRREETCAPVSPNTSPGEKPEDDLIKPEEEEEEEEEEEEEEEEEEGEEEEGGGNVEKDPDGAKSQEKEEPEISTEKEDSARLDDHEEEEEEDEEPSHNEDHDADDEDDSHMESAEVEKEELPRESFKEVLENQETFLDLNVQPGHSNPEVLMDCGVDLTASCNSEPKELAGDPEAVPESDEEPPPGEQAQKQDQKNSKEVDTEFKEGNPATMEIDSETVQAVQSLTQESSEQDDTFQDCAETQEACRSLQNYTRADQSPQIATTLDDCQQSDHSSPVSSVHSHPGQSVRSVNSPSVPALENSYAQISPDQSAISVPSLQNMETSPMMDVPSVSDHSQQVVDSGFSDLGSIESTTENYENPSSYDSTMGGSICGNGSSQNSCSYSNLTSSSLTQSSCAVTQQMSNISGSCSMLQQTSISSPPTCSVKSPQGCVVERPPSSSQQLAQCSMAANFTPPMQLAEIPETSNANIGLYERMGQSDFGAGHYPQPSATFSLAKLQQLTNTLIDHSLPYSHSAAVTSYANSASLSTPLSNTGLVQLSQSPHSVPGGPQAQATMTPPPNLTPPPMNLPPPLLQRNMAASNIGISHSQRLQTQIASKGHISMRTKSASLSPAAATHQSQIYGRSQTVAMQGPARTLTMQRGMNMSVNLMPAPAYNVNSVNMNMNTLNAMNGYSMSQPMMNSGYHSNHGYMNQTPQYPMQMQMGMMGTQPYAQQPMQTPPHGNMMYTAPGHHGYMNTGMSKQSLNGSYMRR
T1 sequence (Q92794 194-810): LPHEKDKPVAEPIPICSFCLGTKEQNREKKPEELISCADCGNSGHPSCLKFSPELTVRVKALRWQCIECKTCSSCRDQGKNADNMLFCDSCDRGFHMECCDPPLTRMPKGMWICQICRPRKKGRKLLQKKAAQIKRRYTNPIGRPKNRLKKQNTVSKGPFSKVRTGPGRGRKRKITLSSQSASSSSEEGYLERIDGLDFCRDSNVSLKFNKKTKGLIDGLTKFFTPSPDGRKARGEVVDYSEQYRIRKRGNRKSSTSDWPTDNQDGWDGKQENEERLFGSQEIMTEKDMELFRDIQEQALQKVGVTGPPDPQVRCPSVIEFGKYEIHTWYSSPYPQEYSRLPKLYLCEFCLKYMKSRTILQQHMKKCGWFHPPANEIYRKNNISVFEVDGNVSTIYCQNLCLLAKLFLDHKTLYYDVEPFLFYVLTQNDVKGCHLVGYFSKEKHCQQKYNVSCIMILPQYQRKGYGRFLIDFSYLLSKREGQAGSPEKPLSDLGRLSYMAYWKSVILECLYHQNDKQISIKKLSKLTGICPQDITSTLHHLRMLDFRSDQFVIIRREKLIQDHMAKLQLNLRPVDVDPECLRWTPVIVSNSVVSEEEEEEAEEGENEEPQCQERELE

For `O=C(NS(=O)(=O)c1ccccc1-c1ccccc1)c1cc2ccc(-c3ccc(F)cc3)cc2o1` [Example 1, N-([1,1′-biphenyl]-2-sulfonyl)-6-(4-fluorophenyl)-1-benzofuran-2-carboxamide], the IC50 in assay [1] was 3.38 µM; in assay [2], 4.79 µM; in assay [3] it was 1.31e-05 M.
For `Cc1ccc2cccc(S(=O)(=O)NC(=O)c3cc4c(F)cc(C5CC5)cc4o3)c2n1` [Example 22, 6-Cyclopropyl-4-fluoro-N-(2-methylquinoline-8-sulfonyl)-1-benzofuran-2-carboxamide], the results for the IC50 in assay [1], in assay [2] and in assay [3] were 0.00948 µM, 0.0225 µM and 2.81e-07 M, respectively. Moreover, in assay [4], the EC50 is 1.26e-06 M.
Consider `COCCc1ccc2cc(C(=O)NS(=O)(=O)c3ccccc3-c3ccccc3)oc2c1` [Example 26, N-([1,1′-biphenyl]-2-sulfonyl)-6-(2-methoxyethyl)-1-benzofuran-2-carboxamide], for which the IC50 in assay [1] was determined as 1.13 µM; in assay [2] it was 2.85 µM; in assay [3] it was 1.56e-05 M.
With `O=C(NS(=O)(=O)c1ccccc1-c1ccccc1)c1cc2c(F)cc(C3CC3)cc2o1` [Example 38, 6-Cyclopropyl-4-fluoro-N-(2-phenylphenyl)sulfonyl-benzofuran-2-carboxamide], the IC50 in assay [1] amounted to 0.0173 µM; in assay [3], 1e-06 M. Further, the EC50 in assay [4] was 9.57e-07 M; in assay [5] it was 3.21e-06 M; in assay [6], above 2e-05 M.
For the compound `O=C(NS(=O)(=O)c1ccccc1)c1cc2c(F)cc(C3CC3)cc2o1` [Example 39, N-(Benzenesulfonyl)-6-cyclopropyl-4-fluoro-benzofuran-2-carboxamide], the values for the IC50 in assay [1] and in assay [3] were 0.0707 µM and 4.57e-06 M, respectively. Further, the EC50 was 3.21e-06 M in assay [4], above 2e-05 M in assay [5] and above 2e-05 M in assay [6].
As to `CN(C)c1cc(C2CC2)cc2oc(C(=O)NS(=O)(=O)c3ccccc3)cc12` [Example 42, N-(Benzenesulfonyl)-6-cyclopropyl-4-(dimethylamino)benzofuran-2-carboxamide], the IC50 in assay [1] is 0.417 µM; in assay [3], above 2e-05 M. For the same compound, the EC50 in assay [4], in assay [5] and in assay [6] was above 2e-05 M each time.
Take `Cc1ccc2cccc(S(=O)(=O)NC(=O)c3cc4c(N(C)C)cc(C5CC5)cc4o3)c2n1` [Example 43, 6-Cyclopropyl-4-(dimethylamino)-N-[(2-methyl-8-quinolyl)sulfonyl]benzofuran-2-carboxamide]: the figures for the IC50 in assay [1] and in assay [3] were 0.013 µM and 6.92e-06 M, respectively. The EC50 in assay [4] was 5.64e-06 M; in assay [5], above 2e-05 M; in assay [6], above 2e-05 M.
Regarding `CN(C)c1cc(C2CC2)cc2oc(C(=O)NS(=O)(=O)c3ccccc3-c3ccccc3)cc12` [Example 44, 6-Cyclopropyl-4-(dimethylamino)-N-(2-phenylphenyl)sulfonyl-benzofuran-2-carboxamide], the IC50 came out at 0.052 µM in assay [1] and 1.16e-05 M in assay [3]. Also, the EC50 was 8.67e-06 M in assay [4], above 2e-05 M in assay [5] and above 2e-05 M in assay [6].
With `CCOc1ccccc1S(=O)(=O)NC(=O)c1cc2c(N(C)C)cc(C3CC3)cc2o1` [Example 45, 6-Cyclopropyl-4-(dimethylamino)-N-(2-ethoxyphenyl)sulfonyl-benzofuran-2-carboxamide], the IC50 was 0.0799 µM in assay [1] and 1.68e-05 M in assay [3]. The EC50 in assay [4], in assay [5] and in assay [6] was above 2e-05 M throughout.
As for `Cc1ccc2cccc(S(=O)(=O)NC(=O)c3cc4c(OC(F)F)cc(C5CC5)cc4o3)c2n1` [Example 47, 6-Cyclopropyl-4-(difluoromethoxy)-N-[(2-methyl-8-quinolyl)sulfonyl]benzofuran-2-carboxamide], the IC50 was 0.00478 µM in assay [1] and 4.65e-06 M in assay [3]. Moreover, the EC50 in assay [4] was 3.24e-06 M; in assay [5], above 2e-05 M; in assay [6] it was above 2e-05 M.
For the compound `Cc1ccc2cccc(S(=O)(=O)NC(=O)c3cc4c(C(F)(F)F)cc(C5CC5)cc4o3)c2n1` [Example 50, 6-Cyclopropyl-N-[(2-methyl-8-quinolyl)sulfonyl]-4-(trifluoromethyl)benzofuran-2-carboximide], the IC50 was 0.00555 µM in assay [1] and 1.95e-06 M in assay [3]. In addition, the EC50 was 1.38e-05 M in assay [4], above 2e-05 M in assay [5] and above 2e-05 M in assay [6].
As to `COc1ccc(C(C)(C)C)cc1S(=O)(=O)NC(=O)c1cc2c(F)cc(C3CC3)cc2o1` [Example 66, N-((5-(tert-butyl)-2-methoxyphenyl)sulfonyl)-6-cyclopropyl-4-fluorobenzofuran-2-carboxamide], the IC50 in assay [1] came to 0.00331 µM; in assay [3], 4.96e-08 M. Also, the results for the EC50 in assay [4], in assay [5] and in assay [6] were 1.76e-07 M, 2.64e-07 M and above 2e-05 M, respectively.
